Measured values taken from US12195427B2, “MASP-2 inhibitors and methods of use” (priority 2018, dated 2025).
Structures can show the parent of a compound that is named as a salt.

Biological target: MASP-2 CCP2-SP (Homo sapiens (Human), UniProt O00187)
Assay: MASP-2 co-crystallization, X-ray crystallography and structure analysis (H-bonds, van der Waals contacts);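 as to Ligand-pharmacophore element distance, pharmacophore element C2: distance from averaged pharmacophore element to bound ligand; missing value means element absent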;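 as to Ligand-pharmacophore element distance, pharmacophore element C3: distance from averaged pharmacophore element to bound ligand; missing value means element absent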;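 as to Ligand-pharmacophore element distance, pharmacophore element C4: distance from averaged pharmacophore element to bound ligand; missing value means element absent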;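 as to Ligand-pharmacophore element distance, pharmacophore element C5: distance from averaged pharmacophore element to bound ligand; missing value means element absent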
Parameters: van der Waals contact distance, MASP-2 HIS 483 atom CD2 / van der Waals contact distance, MASP-2 HIS 483 atom NE2 / van der Waals contact distance, SER 654 C to compound atom / van der Waals contact distance, SER 654 O to compound atom / van der Waals contact distance, TRP 655 C to compound atom / van der Waals contact distance, MASP-2 GLY 528 atom CA / van der Waals contact distance TRP 655 atom CZ3 / van der Waals contact distance TRP 655 atom N / van der Waals contact distance TRP 655 atom CE3 / van der Waals contact distance GLY 656 atom C / van der Waals contact distance GLY 656 atom CA / van der Waals contact distance GLY 656 atom O / van der Waals contact distance, MASP-2 TYR 607 atom CD1 / van der Waals contact distance, MASP-2 PRO 606 atom O / d(C3,CA1) / d(CA1,N1)2 / d(H4,O1) / d(H4,O2) / d(O1,O2) / d(CA1,O2) / d(CA6,O1) / d(CA6,O2) / d(CA1,C5) / d(O2,H3) / d(N2,C2) / d(CA5,N2) / d(N2,C4) / d(N2,C6) / d(N2,CA3) / d(N2,O3) / d(O4,H2): unit not given beside the values
Settings: for Ligand-pharmacophore element distance, pharmacophore element C2 / Ligand-pharmacophore element distance, pharmacophore element C3 / Ligand-pharmacophore element distance, pharmacophore element C4 / Ligand-pharmacophore element distance, pharmacophore element C5 / Ligand-pharmacophore element distance, pharmacophore element C6 / Ligand-pharmacophore element distance, pharmacophore element C7 / Ligand-pharmacophore element distance, pharmacophore element CA1 / Ligand-pharmacophore element distance, pharmacophore element CA2 / Ligand-pharmacophore element distance, pharmacophore element CA3 / Ligand-pharmacophore element distance, pharmacophore element CA4 / Ligand-pharmacophore element distance, pharmacophore element CA5 / Ligand-pharmacophore element distance, pharmacophore element CA6: Table A4-1; for d(C3,CA1) / d(CA1,N1)2 / d(CA1,O1) / d(CA1,O2) / d(H4,O1) / d(H4,O2) / d(O1,O2): Table A5-1 pharmacophore: distance between elements, S2/S1 region; for a(C3, CA1, O1) / a(CA1, O1, O2) / a(O1, O2, H4) / a(N1, CA1, O1) b): Table A6-1 pharmacophore angle; for a(N1, CA1, O1) b): Methyl-amino-pyridine compounds; for H-bond distance to MASP-2 ASP 627 atom OD2: ASP 627 OD2; for H-bond distance to MASP-2 GLY 656 atom N: GLY 656 N; for H-bond distance to MASP-2 SER 657 atom O: SER 657 O
Outline: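 Human MASP-2 CCP2-SP, untagged or 6His-tagged, was expressed in E. coli and crystallized. Crystals were soaked with inhibitor in crystallization solution, flash-cooled in liquid nitrogen, and diffracted with synchrotron X-rays (wavelength 1.0). Structures were solved by molecular replacement from 1Q3X and partially refined.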

[1] = Table A5-2 pharmacophore distance, S3/S4 region
[2] = Table A7-1, between pharmacophore elements of the bound compound
[3] = Table A7-2, between pharmacophore elements of the bound compound

MASP-2 CCP2-SP, sequence (O00187 445-686): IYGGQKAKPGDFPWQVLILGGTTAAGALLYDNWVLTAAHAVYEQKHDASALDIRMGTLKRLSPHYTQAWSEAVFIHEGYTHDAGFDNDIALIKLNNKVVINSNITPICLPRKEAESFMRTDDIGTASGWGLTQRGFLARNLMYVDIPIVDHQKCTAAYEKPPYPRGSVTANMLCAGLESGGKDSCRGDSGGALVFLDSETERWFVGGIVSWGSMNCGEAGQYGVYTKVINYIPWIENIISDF
MASP-2 CCP2-SP, sequence (O00187 364-432 partner): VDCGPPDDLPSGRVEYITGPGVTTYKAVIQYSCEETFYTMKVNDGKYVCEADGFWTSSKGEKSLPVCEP

Cc1nc(N)ccc1CNC(=O)[C@H](C)NC(=O)[C@H]1C[C@H](Cc2cccc(Cl)c2)CN1.Cl.Cl [1328_3]
Ligand-pharmacophore element distance, pharmacophore element C2: 0
Ligand-pharmacophore element distance, pharmacophore element C3: 0.21
Ligand-pharmacophore element distance, pharmacophore element C4: 1.76
Ligand-pharmacophore element distance, pharmacophore element C5: 0
Ligand-pharmacophore element distance, pharmacophore element C6: 0
Ligand-pharmacophore element distance, pharmacophore element C7: 0
Ligand-pharmacophore element distance, pharmacophore element CA1: 0.4
Ligand-pharmacophore element distance, pharmacophore element CA2: 0.48
Ligand-pharmacophore element distance, pharmacophore element CA3: 0
Ligand-pharmacophore element distance, pharmacophore element CA4: 0
Ligand-pharmacophore element distance, pharmacophore element CA5: 0
Ligand-pharmacophore element distance, pharmacophore element CA6: 0
d(C3,CA1): 2.85
d(CA1,N1)2: 1.38
d(CA1,O1): 4.82
d(CA1,O2): 3.89
d(H4,O1): 3.99
d(H4,O2): 2.55
d(O1,O2): 3.40
d(N2,C4) [1]: 7.95
d(N2,C4)4 [1]: 7.95
d(N2,CA2) [1]: 6.00
d(O2,H3) [1]: 4.77
d(O2,N2) [1]: 2.77
a(C3, CA1, O1): 150.74
a(CA1, O1, O2): 97.62
a(O1, O2, H4): 122.23
a(N1, CA1, O1) b): 173.57
a(O1, O2, H3) (Table A6-2 pharmacophore angle): 151.35
a(O1, O2, N2) (Table A6-2 pharmacophore angle): 139.67
a(O2, N2, C4) (Table A6-2 pharmacophore angle): 160.41
a(O2, N2, C4) 2 (Table A6-2 pharmacophore angle): 106.08
a(O2, N2, CA2) (Table A6-2 pharmacophore angle): 154.95
Pharmacophore torsion angle a(C3, CA1, O1, H4) [2]: 57.52
Pharmacophore torsion angle a(H4, O1, O2, H3) [2]: 47.98
Pharmacophore torsion angle a(H4, O1, O2, N2) [2]: 130.71
Pharmacophore torsion angle a(N1, CA1, O1, H4) [2]: 39.33
Pharmacophore torsion angle a(O1, H4, O2, CA1) [2]: −87.28
Pharmacophore torsion angle a(O1, O2, N2, CA2) [3]: 131.79

Cc1nc(N)ccc1CNC(=O)[C@H](C)NC(=O)[C@H]1C[C@H](Cc2ccccc2-c2ccccc2)CN1 [compound 1373, (2R,4S)-4-([1,1′-Biphenyl]-2-ylmethyl)-N—((S)-1-(((6-amino-2-methylpyridin-3-yl)methyl)amino)-1-oxopropan-2-yl)pyrrolidine-2-carboxamide Di-trifluoroacetate salt]
H-bond distance to MASP-2 ASP 627 atom OD2 (Table A1 (H-Bonds)): 3.21
H-bond distance to MASP-2 GLY 656 atom N (Table A1 (H-Bonds)): 3.2
H-bond distance to MASP-2 GLY 656 atom O (Table A1 (H-Bonds), GLY 656 O): 2.76
H-bond distance to MASP-2 SER 628 atom O (Table A1 (H-Bonds), SER 628 O): 3.18
H-bond distance to MASP-2 SER 654 atom O (Table A1 (H-Bonds), SER 654 O): 3.04
H-bond distance to MASP-2 SER 657 atom O (Table A1 (H-Bonds)): 2.89
van der Waals contact distance, MASP-2 HIS 483 atom CD2 (Table A2-1): 3.71
van der Waals contact distance, MASP-2 HIS 483 atom NE2 (Table A2-1): 3.62
van der Waals contact distance, MASP-2 GLY 528 atom CA (Table A2-2): 3.79
van der Waals contact distance, MASP-2 amino acid atom to compound atom (Table A2-7: SER 628 (CB, O, OG)): 3.64
van der Waals contact distance, VAL 653 CG1 to compound atom (Table A2-11): 3.34
van der Waals contact distance, SER 654 O to compound atom (Table A2-12): 3.83
van der Waals contact distance, TRP 655 CA to compound atom (Table A2-12): 3.44
van der Waals contact distance TRP 655 atom CE3 (Table A2-13, MASP-2 TRP 655 CE3, compound atom in line below): 3.65
van der Waals contact distance TRP 655 atom CZ3 (Table A2-13, MASP-2 TRP 655 CZ3): 3.57
van der Waals contact distance, MASP-2 amino acid atom to compound atom (Table A2 section before Table A2-8): 3.83
Ligand-pharmacophore element distance, pharmacophore element C2: 0
Ligand-pharmacophore element distance, pharmacophore element C3: 0.08
Ligand-pharmacophore element distance, pharmacophore element C4: 0
Ligand-pharmacophore element distance, pharmacophore element C5: 0
Ligand-pharmacophore element distance, pharmacophore element C6: 0
Ligand-pharmacophore element distance, pharmacophore element C7: 0
Ligand-pharmacophore element distance, pharmacophore element CA1: 0.56
Ligand-pharmacophore element distance, pharmacophore element CA2: 0.54
Ligand-pharmacophore element distance, pharmacophore element CA3: 0
Ligand-pharmacophore element distance, pharmacophore element CA4: 0
Ligand-pharmacophore element distance, pharmacophore element CA5: 2.5
Ligand-pharmacophore element distance, pharmacophore element CA6: 0
d(C3,CA1): 2.85
d(CA1,N1)2: 1.37
d(CA1,O1): 4.41
d(CA1,O2): 3.86
d(H4,O1): 4.40
d(H4,O2): 3.78
d(O1,O2): 3.38
d(CA5,N2) [1]: 6.60
d(N2,CA2) [1]: 6.03
d(O2,H3) [1]: 4.31
d(O2,N2) [1]: 2.65
a(C3, CA1, O1): 149.81
a(CA1, O1, O2): 105.28
a(O1, O2, H4): 131.90
a(N1, CA1, O1) b): 174.08
a(O1, O2, H3) (Table A6-2 pharmacophore angle): 147.32
a(O1, O2, N2) (Table A6-2 pharmacophore angle): 141.07
a(O2, N2, CA2) (Table A6-2 pharmacophore angle): 156.78
Pharmacophore torsion angle a(C3, CA1, O1, H4) [2]: 25.67
Pharmacophore torsion angle a(H4, O1, O2, H3) [2]: 50.98
Pharmacophore torsion angle a(H4, O1, O2, N2) [2]: 139.02
Pharmacophore torsion angle a(N1, CA1, O1, H4) [2]: 4.28
Pharmacophore torsion angle a(O1, H4, O2, CA1) [2]: −84.42
Pharmacophore torsion angle a(O1, O2, N2, CA2) [3]: 127.58
Pharmacophore torsion angle a(O1, O2, N2, CA5) [3]: 91.76

C[C@H](NC(=O)[C@H]1C[C@@H](c2ccccc2)CN1)C(=O)NCc1ccc(C(=N)N)cc1 [compound 1037]
H-bond distance to MASP-2 ASP 627 atom OD2 (Table A1 (H-Bonds)): 2.91
H-bond distance to MASP-2 GLY 656 atom N (Table A1 (H-Bonds)): 3.35
H-bond distance to MASP-2 SER 657 atom O (Table A1 (H-Bonds)): 2.85
van der Waals contact distance, MASP-2 PHE 529 atom CE1 (Table A2-3): 3.27
van der Waals contact distance, MASP-2 PHE 529 atom CE2 (Table A2-3): 3.73
van der Waals contact distance, MASP-2 PRO 606 atom C (Table A2-4): 3.89
van der Waals contact distance, MASP-2 PRO 606 atom O (Table A2-4): 3.73
van der Waals contact distance GLY 656 atom C (Table A2-13, MASP-2 GLY 656 C): 3.7
van der Waals contact distance TRP 655 atom O (Table A2-13, MASP-2 TRP 655 O): 3.25
van der Waals contact distance GLY 656 atom N (Table A2-14, MASP-2 GLY 656 N): 3.86
van der Waals contact distance SER 657 atom C (Table A2-14, MASP-2 SER 657 C, columns c12-c13 (inferred)): 3.73
Ligand-pharmacophore element distance, pharmacophore element C2: 0
Ligand-pharmacophore element distance, pharmacophore element C3: 0
Ligand-pharmacophore element distance, pharmacophore element C4: 0
Ligand-pharmacophore element distance, pharmacophore element C5: 0
Ligand-pharmacophore element distance, pharmacophore element C6: 0
Ligand-pharmacophore element distance, pharmacophore element C7: 0
Ligand-pharmacophore element distance, pharmacophore element CA1: 0.27
Ligand-pharmacophore element distance, pharmacophore element CA2: 0
Ligand-pharmacophore element distance, pharmacophore element CA3: 0
Ligand-pharmacophore element distance, pharmacophore element CA4: 0
Ligand-pharmacophore element distance, pharmacophore element CA6: 0
d(O2,H3) [1]: 3.99
Pharmacophore torsion angle a(H4, O1, O2, H3) [2]: 57.29
Pharmacophore torsion angle a(N1, CA1, O2, H4) [2]: −92.49
Pharmacophore protein distance to MET_658 (first MET_658 column) (Table A8-6, 6th residue column, nearest protein atom in cell to the left): 2.38
Pharmacophore protein distance to MET_658 (second MET_658 column) (Table A8-6, 9th residue column, nearest protein atom in cell to the left): 3.03
Pharmacophore protein distance to SER_611 (Table A8-6, nearest protein atom in cell to the left): 2.19
